In PMC8880564, “Design, Synthesis, and Biological Evaluation of a Novel VEGFR-2 Inhibitor Based on a 1,2,5-Oxadiazole-2-Oxide Scaffold with MAPK Signaling Pathway Inhibition” (Pharmaceuticals, 2022):

What was measured:
Assay in all cases: NCI-60 one-dose SRB screening
Format in all cases: cell-based
[1] = tested on: MCF7; settings: Homo sapiens, MCF7, Breast Cancer, 10 µM one dose, 48 h, read-out: growth percentage
Procedure: (§1) The structures of the synthesized compounds 6a–h, 12a–c, 11, 13a–c, and 14a–c were submitted to the National Cancer Institute’s Developmental Therapeutics Program (NCI-DTP), and all of them were selected for preliminary in vitro anticancer activity screening against NCI-59 human cancer cell lines at a concentration of 10 µM, using the sulforhodamine B (SRB) assay to determine the growth percentage and cell viability.
(§2) The in vitro NCI-60 cell line screening assay was conducted at the National Cancer Institute (NCI), Bethesda, USA against 59 cancer cell lines representing 9 types of cancers, as reported earlier. Briefly, the human cancer cell lines were grown in RPMI 1640 medium containing 5% fetal bovine serum and 2 mM L-glutamine and inoculated into 96-well microtiter plates in 100 μL (5000 to 40,000 cells/well). Then, the plates were incubated at 37 °C, 5% CO2, 95% air, and 100% relative humidity for 24 h. After that, two plates of each cell line were fixed in situ with TCA, to represent cell population at time zero (Tz). The tested compounds were dissolved in DMSO at 400-fold and added so that the final concentration became 10 μM. The plates were then incubated for an additional 48 h followed by the addition of cold TCA to terminate the assay in case of adherent cells. Then, the cells were fixed in situ by cold 50% (w/v) TCA (50 μL; final concentration, 10% TCA) and incubated for 1 h at 4 °C. After discarding the supernatant, the plates were washed 5 times with tap water and air dried. Sulforhodamine B (SRB) solution (100 μL) at 0.4% (w/v) in 1% HOAc was added to each well, and plates were incubated for 10 min. at rt. Then, washing with 1% acetic acid was conducted 5 times to remove the unbound dye followed by air drying. After that, 10 mM trizma base was added to solubilize the bound stain, and the absorbance was read on an automated plate reader at a wavelength of 515 nm. On the other hand, the methodology for suspension cells was the same except that 50 μL of 80% TCA (final concentration, 16% TCA) was gently added to terminate the assay by fixing settled cells at the bottom of the wells. Percentage growth inhibition (GI%) was calculated as follows:
(§3) Growth percentage=Ti (test growth in the presence of compound at 10 µM )−Tz (time zero)/C (control growth)−Tz (time zero)×100 for Ti ≥ Tz;
(§4) Growth percentage=Ti (test growth in the presence of compound at 10 µM )−Tz (time zero)/Tz (time zero)×100 for Ti < Tz.
(§5) where values of 100, 40, 0, −40, and −100 mean no GI, 60% GI, no net G, 40% lethality, and all cells are dead, respectively.

[2] = tested on: 786-0; settings: Homo sapiens, 786-0, Renal Cancer, 10 µM one dose, 48 h, read-out: growth percentage
Procedure: as §1, §2, §3, §4, §5

[3] = tested on: M14; settings: Homo sapiens, M14, Melanoma, 10 µM one dose, 48 h, read-out: growth percentage
Procedure: as §1, §2, §3, §4, §5

[4] = tested on: RPMI-8226; settings: Homo sapiens, RPMI-8226, Leukemia, 10 µM one dose, 48 h, read-out: growth percentage
Procedure: as §1, §2, §3, §4, §5

[5] = tested on: NCI-H522; settings: Homo sapiens, NCI-H522, Non-Small Cell Lung Cancer, 10 µM one dose, 48 h, read-out: growth percentage
Procedure: as §1, §2, §3, §4, §5

[6] = tested on: K-562; settings: Homo sapiens, K562, K-562, Leukemia, 10 µM one dose, 48 h, read-out: growth percentage
Procedure: as §1, §2, §3, §4, §5

[7] = tested on: SK-OV-3; settings: Homo sapiens, SK-OV-3, Ovarian Cancer, 10 µM one dose, 48 h, read-out: growth percentage
Procedure: as §1, §2, §3, §4, §5

[8] = tested on: SF-539; settings: Homo sapiens, SF-539, CNS Cancer, 10 µM one dose, 48 h, read-out: growth percentage
Procedure: as §1, §2, §3, §4, §5

[9] = tested on: IGROV1; settings: Homo sapiens, IGROV-1, IGROV1, Ovarian Cancer, 10 µM one dose, 48 h, read-out: growth percentage
Procedure: as §1, §2, §3, §4, §5

[10] = tested on: SN12C; settings: Homo sapiens, Renal Cancer, 10 µM one dose, 48 h, read-out: growth percentage
Procedure: as §1, §2, §3, §4, §5

[11] = tested on: MDA-MB-435; settings: Homo sapiens, MDA-MB-435, Melanoma, 10 µM one dose, 48 h, read-out: growth percentage
Procedure: as §1, §2, §3, §4, §5

[12] = tested on: HL-60(TB); settings: Homo sapiens, Leukemia, 10 µM one dose, 48 h, read-out: growth percentage
Procedure: as §1, §2, §3, §4, §5

[13] = tested on: A549/ATCC; settings: Homo sapiens, Non-Small Cell Lung Cancer, 10 µM one dose, 48 h, read-out: growth percentage
Procedure: as §1, §2, §3, §4, §5

[14] = tested on: RXF 393; settings: Homo sapiens, RXF 393, Renal Cancer, 10 µM one dose, 48 h, read-out: growth percentage
Procedure: as §1, §2, §3, §4, §5

[15] = tested on: SK-MEL-28; settings: Homo sapiens, SK-MEL-28, Melanoma, 10 µM one dose, 48 h, read-out: growth percentage
Procedure: as §1, §2, §3, §4, §5

[16] = tested on: MDA-MB-231/ATCC; settings: Homo sapiens, Breast Cancer, 10 µM one dose, 48 h, read-out: growth percentage
Procedure: as §1, §2, §3, §4, §5

[17] = tested on: PC-3; settings: Homo sapiens, PC-3, Prostate Cancer, 10 µM one dose, 48 h, read-out: growth percentage
Procedure: as §1, §2, §3, §4, §5

[18] = tested on: NCI-H226; settings: Homo sapiens, NCI-H226, Non-Small Cell Lung Cancer, 10 µM one dose, 48 h, read-out: growth percentage
Procedure: as §1, §2, §3, §4, §5

[19] = tested on: SF-268; settings: Homo sapiens, SF-268, CNS Cancer, 10 µM one dose, 48 h, read-out: growth percentage
Procedure: as §1, §2, §3, §4, §5

[20] = tested on: NCI-H460; settings: Homo sapiens, NCI-H460, Non-Small Cell Lung Cancer, 10 µM one dose, 48 h, read-out: growth percentage
Procedure: as §1, §2, §3, §4, §5

[21] = tested on: NCI-H23; settings: Homo sapiens, NCI-H23, Non-Small Cell Lung Cancer, 10 µM one dose, 48 h, read-out: growth percentage
Procedure: as §1, §2, §3, §4, §5

Structure (SMILES)	activity at 10 µM [1]	activity at 10 µM [2]	activity at 10 µM [3]	activity at 10 µM [4]	activity at 10 µM [5]	activity at 10 µM [6]	activity at 10 µM [7]	activity at 10 µM [8]	activity at 10 µM [9]	activity at 10 µM [10]	activity at 10 µM [11]	activity at 10 µM [13]	activity at 10 µM [14]	activity at 10 µM [15]	activity at 10 µM [16]	activity at 10 µM [17]	activity at 10 µM [18]	activity at 10 µM [19]	activity at 10 µM [20]	activity at 10 µM [21]	other results
Cc1nc(Nc2ccc(OCc3c(-c4ccccc4)no[n+]3[O-])cc2)c2c(C)nn(-c3ccccc3)c2n1 [6d, 3-((4-((3,6-dimethyl-1-phenyl-1H-pyrazolo[3,4-d]pyrimidin-4-yl)amino)phenoxy)methyl)-4-phenyl-1,2,5-oxadiazole 2-oxide]	95.4%	107%	96.2%	106%	105%	99.3%	109%	99.8%	106%	98.4%	105%	103%	119%	102%	101%	99%	101%	106%	112%	102%	activity at 10 µM [12]: 111%
[O-][n+]1onc(-c2ccccc2)c1COc1ccc(Nc2ncnc3c2cnn3-c2ccc(Br)cc2)cc1 [6e, 3-((4-((1-(4-bromophenyl)-1H-pyrazolo[3,4-d]pyrimidin-4-yl)amino)phenoxy)methyl)-4-phenyl-1,2,5-oxadiazole 2-oxide]	87.9%	96.1%	102%	111%	96.1%	98.5%	104%	98.4%	106%	96.4%	94.5%	93.5%	119%	99.3%	108%	97%	104%	101%	111%	101%	activity at 10 µM [12]: 96.1%
Cc1nn(-c2ccccc2)c2nc(CCl)[nH]c(=O)c12 [13b]	16.4%	122%	103%		89.8%	19.2%	105%	36.9%	96.2%	95.7%	99%	97.7%	99.2%	105%	88.4%	102%	111%	106%	102%	98.8%	activity at 10 µM [12]: 33.1%
Cc1nn(-c2ccc(Br)cc2)c2nc(CCl)[nH]c(=O)c12 [13c]	82.3%	106%	106%	-53.9%	85.5%	75.6%	104%	77%	95.1%	100%	101%	96.9%	119%	99.9%	94.1%	96.3%	102%	99.4%	109%	103%	
